In patent publication US9902696B2, “1,4-substituted piperidine derivatives” (Cephalon, Inc., priority 2015, dated 2018) one finds IC50 and melting point data, which are given here for 35 compounds.

Molecules are shown by their SMILES. Where a name gives a salt, the structure may show the parent alone.

T1 sequence (P49327 whole entry): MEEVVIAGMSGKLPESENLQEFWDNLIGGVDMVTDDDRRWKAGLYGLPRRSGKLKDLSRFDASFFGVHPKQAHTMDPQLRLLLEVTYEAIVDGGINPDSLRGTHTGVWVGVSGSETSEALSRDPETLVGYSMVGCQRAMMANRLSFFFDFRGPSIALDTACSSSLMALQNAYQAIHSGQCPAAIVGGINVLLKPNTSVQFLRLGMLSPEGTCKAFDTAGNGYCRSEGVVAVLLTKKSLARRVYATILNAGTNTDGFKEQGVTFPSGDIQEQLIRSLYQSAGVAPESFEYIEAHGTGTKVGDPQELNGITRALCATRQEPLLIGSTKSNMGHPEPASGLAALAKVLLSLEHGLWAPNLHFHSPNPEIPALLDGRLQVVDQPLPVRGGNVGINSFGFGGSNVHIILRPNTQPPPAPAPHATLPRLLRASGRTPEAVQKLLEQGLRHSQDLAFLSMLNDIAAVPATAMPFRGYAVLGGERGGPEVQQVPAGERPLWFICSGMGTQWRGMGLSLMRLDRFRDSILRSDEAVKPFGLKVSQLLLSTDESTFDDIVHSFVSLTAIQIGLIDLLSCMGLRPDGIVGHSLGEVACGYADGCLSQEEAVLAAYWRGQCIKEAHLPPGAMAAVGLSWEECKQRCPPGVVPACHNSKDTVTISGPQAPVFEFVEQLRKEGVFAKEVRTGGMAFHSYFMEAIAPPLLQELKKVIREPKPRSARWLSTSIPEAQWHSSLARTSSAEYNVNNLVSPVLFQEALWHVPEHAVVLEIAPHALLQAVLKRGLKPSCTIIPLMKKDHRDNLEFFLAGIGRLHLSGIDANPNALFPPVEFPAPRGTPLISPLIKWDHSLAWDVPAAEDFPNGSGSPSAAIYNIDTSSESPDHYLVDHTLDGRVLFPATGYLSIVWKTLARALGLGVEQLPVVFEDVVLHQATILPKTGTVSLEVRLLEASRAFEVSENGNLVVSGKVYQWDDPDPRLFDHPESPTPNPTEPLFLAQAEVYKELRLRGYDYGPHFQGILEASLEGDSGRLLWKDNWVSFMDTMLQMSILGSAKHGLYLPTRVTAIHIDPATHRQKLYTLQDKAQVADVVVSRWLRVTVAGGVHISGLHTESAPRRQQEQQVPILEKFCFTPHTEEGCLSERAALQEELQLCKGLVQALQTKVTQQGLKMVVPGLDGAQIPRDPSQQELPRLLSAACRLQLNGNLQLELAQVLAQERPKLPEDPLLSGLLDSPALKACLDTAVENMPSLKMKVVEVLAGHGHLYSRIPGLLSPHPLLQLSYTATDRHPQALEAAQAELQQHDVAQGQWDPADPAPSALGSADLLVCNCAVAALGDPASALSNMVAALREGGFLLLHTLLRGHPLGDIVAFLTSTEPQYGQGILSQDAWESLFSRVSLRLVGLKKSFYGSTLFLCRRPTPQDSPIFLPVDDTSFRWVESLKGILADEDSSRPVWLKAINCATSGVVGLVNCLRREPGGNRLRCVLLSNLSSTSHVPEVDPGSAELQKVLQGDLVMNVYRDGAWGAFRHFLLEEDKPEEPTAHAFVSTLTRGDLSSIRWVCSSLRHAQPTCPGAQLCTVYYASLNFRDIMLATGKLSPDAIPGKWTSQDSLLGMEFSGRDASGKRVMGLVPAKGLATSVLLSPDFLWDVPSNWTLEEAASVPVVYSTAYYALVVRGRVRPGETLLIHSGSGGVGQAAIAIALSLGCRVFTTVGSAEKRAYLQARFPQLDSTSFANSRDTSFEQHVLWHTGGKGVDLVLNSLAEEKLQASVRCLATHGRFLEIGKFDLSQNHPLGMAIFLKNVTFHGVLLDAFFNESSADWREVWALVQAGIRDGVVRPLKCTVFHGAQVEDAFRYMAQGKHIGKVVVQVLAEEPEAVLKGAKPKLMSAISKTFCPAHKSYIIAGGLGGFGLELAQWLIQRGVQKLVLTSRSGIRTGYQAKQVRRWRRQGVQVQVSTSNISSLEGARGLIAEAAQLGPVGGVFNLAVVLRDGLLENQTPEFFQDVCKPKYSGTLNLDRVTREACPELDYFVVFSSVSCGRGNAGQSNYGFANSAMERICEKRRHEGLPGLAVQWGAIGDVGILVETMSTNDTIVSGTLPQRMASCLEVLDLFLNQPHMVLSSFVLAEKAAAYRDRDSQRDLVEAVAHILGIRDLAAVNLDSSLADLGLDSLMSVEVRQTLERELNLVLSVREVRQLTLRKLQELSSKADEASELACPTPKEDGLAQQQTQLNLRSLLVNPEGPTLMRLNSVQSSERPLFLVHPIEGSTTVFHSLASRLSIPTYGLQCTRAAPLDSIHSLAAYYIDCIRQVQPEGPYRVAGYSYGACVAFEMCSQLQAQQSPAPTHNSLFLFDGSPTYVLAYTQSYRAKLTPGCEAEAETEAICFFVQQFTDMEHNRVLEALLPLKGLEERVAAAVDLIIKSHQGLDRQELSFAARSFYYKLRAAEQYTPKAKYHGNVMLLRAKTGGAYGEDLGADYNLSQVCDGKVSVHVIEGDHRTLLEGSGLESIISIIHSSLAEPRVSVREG

The first data set concerns the target T1, recombinant human baculovirus-expressed GST-tagged FASN (Homo sapiens, UniProt P49327).
T1 construct: GST
Put plainly: FASN enzyme activity assay, fluorescence-based detection of CoA with CPM. The format is biochemical. To be noted: 5 nM FASN, 150 μM NADPH, 10 μM acetyl-CoA, 25 μM malonyl-CoA, 90 minutes incubation; read-out: IC50 data for Additional Compounds of Formulae I-V(a): Activity. In a few lines:
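CoA product reacted with thiol-reactive CPM (diluted to 50 μM in 70% ethanol), read at 390/530 nm after 30 min. Preceding reaction: 90 min, 5 nM recombinant GST-FASN, 150 μM NADPH, 10 μM acetyl-CoA, 25 μM malonyl-CoA, pH 7.5 HEPES, 0.5% DMSO. IC50s fitted by nonlinear sigmoidal regression.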
For the compound `CCNC(=O)N1CCC(Oc2ccc(-c3ccn4ccnc4c3C)cc2)CC1` [Example 629, N-Ethyl-4-[4-(8-methylimidazo[1,2-a]pyridin-7-yl)phenoxy]piperidine-1-carboxamide, HCl], the IC50 was in the range of 1000 to 10000 nM. Same read-out and setting: with `Cc1c(-c2ccc(OC3CCN(C(=O)NOC(C)C)CC3)cc2)ccn2ccnc12` [Example 630, N-Isopropoxy-4-[4-(8-methylimidazo[1,2-a]pyridin-7-yl)phenoxy]piperidine-1-carboxamide, HCl] the figure was 100 to 999 nM; with `CCCNC(=O)N1CCC(Oc2ccc(-c3ccn4ccnc4c3C)cc2)CC1` [Example 631, 4-[4-(8-Methylimidazo[1,2-a]pyridin-7-yl)phenoxy]-N-propyl-piperidine-1-carboxamide, HCl], 1 to 99 nM. Same read-out and setting: with `Cc1c(-c2ccc(OC3CCN(C(=O)NCC(C)C)CC3)cc2)ccn2ccnc12` [Example 632, N-Isobutyl-4-[4-(8-methylimidazo[1,2-a]pyridin-7-yl)phenoxy]piperidine-1-carboxamide] the figure was 1 to 99 nM; with `Cc1c(-c2ccc(OC3CCN(C(=O)NCC(C)C)CC3)cc2)ccc2ccnn12` [Example 633, N-Isobutyl-4-[4-(7-methylpyrazolo[1,5-a]pyridin-6-yl)phenoxy]piperidine-1-carboxamide], 1 to 99 nM.

The data set is the same for the next values; noted with them: 5 nM FASN, 150 μM NADPH, 10 μM acetyl-CoA, 25 μM malonyl-CoA, 90 minutes incubation; read-out: IC50 data for Compounds of Formulae I-V/V(a): Activity.
As for `CCC(=O)N1CCC(Oc2ncc(-c3cnc4ccccc4c3)cn2)CC1` [Example 143, 1-[4-(5-Quinolin-3-yl-pyrimidin-2-yloxy)-piperidin-1-yl]-propan-1-one], the IC50 is 1000 to 10000 nM. The same measure, in the same setting: with `CCC(=O)N1CCC(Oc2ccc(-c3cnc4ccccc4c3)cc2Cl)CC1` [Example 191, 1-[4-(2-Chloro-4-quinolin-3-yl-phenoxy)-piperidin-1-yl]-propan-1-one] the figure was 1000 to 10000 nM. Same read-out and setting: with `CCC(=O)N1CC(Oc2ccc(-c3cnc4ccccc4c3)cc2)C1` [Example 338, 1-(3-(4-(Quinolin-3-yl)phenoxy)azetidin-1-yl)propan-1-one] the figure was 100 to 999 nM; with `CC(C)C(=O)N1CC(Oc2ccc(-c3cnc4ccccc4c3)cc2)C1` [Example 339, 2-Methyl-1-(3-(4-(quinolin-3-yl)phenoxy)azetidin-1-yl)propan-1-one], 1000 to 10000 nM.

In the case of `O=C(C1CC1)N1CC(Oc2ccc(-c3cnc4ccccc4c3)cc2)C1` [Example 340, Cyclopropyl(3-(4-(quinolin-3-yl)phenoxy)azetidin-1-yl)methanone], the IC50 lay within 1000 to 10000 nM.

Test system in another data set: not given
Experiment: not given
Conditions: not given
One may read the melting point as the temperature, or range, at which the solid turns liquid. As for `O=C(C1CC1)N1CCC(Oc2ccc(-c3cnc4ccccc4c3)cc2)CC1` (as salt: HCl) [Example 100, Cyclopropyl-[4-(4-quinolin-3-yl-phenoxy)-piperidin-1-yl]-methanone,HCl], the melting point was in the range of 170 to 173 °C. In the case of `O=C(C1CCC1)N1CCC(Oc2ccc(-c3cnc4ccccc4c3)cc2)CC1` (as salt: HCl) [Example 101, Cyclobutyl-[4-(4-quinolin-3-yl-phenoxy)-piperidin-1-yl]-methanone,HCl], the melting point was 164 to 166 °C.

`O=C(C1CCCC1)N1CCC(Oc2ccc(-c3cnc4ccccc4c3)cc2)CC1` (as salt: HCl) [Example 102, Cyclopentyl-[4-(4-quinolin-3-yl-phenoxy)-piperidin-1-yl]-methanone, 2HCl] showed a melting point of 145 to 147 °C. Compound `CC(C)C(=O)N1CCC(Oc2ncc(-c3cnc4ccccc4c3)cn2)CC1` (as salt: HCl) [Example 138, 2-Methyl-1-[4-(5-quinolin-3-yl-pyrimidin-2-yloxy)-piperidin-1-yl]-propan-1-one, 2HCl] came in with a melting point of 124 to 130 °C.

The compound `O=C(C1CC1)N1CCC(Oc2ncc(-c3cnc4ccccc4c3)cn2)CC1` (as salt: HCl) [Example 139, Cyclopropyl-[4-(5-quinolin-3-yl-pyrimidin-2-yloxy)-piperidin-1-yl]-methanone, 2HCl] yielded a melting point of 150 to 153 °C.

Regarding `CCC(=O)N1CCC(Oc2ccc(-c3cnc4ccccc4c3)nc2)CC1` (as salt: HCl) [Example 140, 1-[4-(6-Quinolin-3-yl-pyridin-3-yloxy)-piperidin-1-yl]-propan-1-one, 2HCl], the melting point fell in the range of 207 to 212 °C. `CC(C)C(=O)N1CCC(Oc2ccc(-c3cnc4ccccc4c3)nc2)CC1` (as salt: HCl) [Example 141, 2-Methyl-1-[4-(6-quinolin-3-yl-pyridin-3-yloxy)-piperidin-1-yl]-propan-1-one, 2HCl] had a melting point of 99 to 102 °C. As to `O=C(C1CC1)N1CCC(Oc2ccc(-c3cnc4ccccc4c3)nc2)CC1` (as salt: HCl) [Example 142, Cyclopropyl-[4-(6-quinolin-3-yl-pyridin-3-yloxy)-piperidin-1-yl]-methanone, 2HCl], the melting point fell in the range of 230 to 234 °C.

Turning to `CCC(=O)N1CCC(Oc2ccc(-c3ccc4cccnc4c3)nc2)CC1` (as salt: HCl) [Example 144, 1-[4-(6-Quinolin-7-yl-pyridin-3-yloxy)-piperidin-1-yl]-propan-1-one, 2HCl], the melting point was in the range of 90 to 96 °C. Take `CC(C)C(=O)N1CCC(Oc2ccc(-c3ccc4cccnc4c3)nc2)CC1` (as salt: HCl) [Example 145, 2-Methyl-1-[4-(6-quinolin-7-yl-pyridin-3-yloxy)-piperidin-1-yl]-propan-1-one, 2HCl]: the melting point was 170 to 179 °C. `O=C(C1CC1)N1CCC(Oc2ccc(-c3ccc4cccnc4c3)nc2)CC1` (as salt: HCl) [Example 146, Cyclopropyl-[4-(6-quinolin-7-yl-pyridin-3-yloxy)-piperidin-1-yl]-methanone, 2HCl]: the melting point is 170 to 175 °C. Regarding `CCC(=O)N1CCC(Oc2ccc(-c3ccc4cnccc4c3)nc2)CC1` (as salt: HCl) [Example 147, 1-[4-(6-Isoquinolin-6-yl-pyridin-3-yloxy)-piperidin-1-yl]-propan-1-one, 2HCl], the melting point was 236 to 245 °C.

In turn, `CC(C)C(=O)N1CCC(Oc2ccc(-c3ccc4cnccc4c3)nc2)CC1` (as salt: HCl) [Example 148, 1-[4-(6-Isoquinolin-6-yl-pyridin-3-yloxy)-piperidin-1-yl]-2-methyl-propan-1-one, 2HCl] yielded a melting point of 236 to 241 °C. On the same count and under the same terms, with `O=C(C1CC1)N1CCC(Oc2ccc(-c3ccc4cnccc4c3)nc2)CC1` (as salt: HCl) [Example 149, Cyclopropyl-[4-(6-isoquinolin-6-yl-pyridin-3-yloxy)-piperidin-1-yl]-methanone, 2HCl] the figure was 136 to 146 °C; with `CCC(=O)N1CC[C@H](Oc2ccc(-c3cnc4ccccc4c3)cc2)C1` (as salt: HCl) [Example 343, (S)-1-(3-(4-(Quinolin-3-yl)phenoxy)pyrrolidin-1-yl)propan-1-one, HCl], 60 °C; with `CCC(=O)N1CC[C@@H](Oc2ccc(-c3ccc4cccnc4c3)cc2)C1` (as salt: HCl) [Example 344, (R)-1-(3-(4-(Quinolin-7-yl)phenoxy)pyrrolidin-1-yl)propan-1-one, HCl], 53 °C. `CCC(=O)N1CC[C@@H](Oc2ccc(-c3cnc4ccccc4c3)cc2)C1` (as salt: HCl) [Example 345, (R)-1-(3-(4-(quinolin-3-yl)phenoxy)pyrrolidin-1-yl)propan-1-one, HCl]: the melting point turned out to be 51 °C. Compound `CCC(=O)N1CCC(Sc2ccc(-c3ccc4cccnc4c3)cc2)CC1` (as salt: HCl) [Example 516, 1-(4-((4-(quinolin-7-yl)phenyl)thio)piperidin-1-yl)propan-1-one, HCl] had a melting point of 188 °C. Compound `CCC(=O)N1CCC(Sc2ccc(-c3ccc4cnccc4c3)cc2)CC1` (as salt: HCl) [Example 517, 1-(4-((4-(Isoquinolin-6-yl)phenyl)thio)piperidin-1-yl)propan-1-one, HCl] came in with a melting point of 222 °C. In the case of `CCC(=O)N1CCC(Sc2ccc(-c3cnc4ccccc4c3)cc2)CC1` (as salt: HCl) [Example 518, 1-(4-((4-(Quinolin-3-yl)phenyl)thio)piperidin-1-yl)propan-1-one, HCl], the melting point was determined as 70 °C.

`CCC(=O)N1CCC(Sc2ccc(-c3cncc4ccccc34)cc2)CC1` (as salt: HCl) [Example 519, 1-(4-((4-(Isoquinolin-4-yl)phenyl)thio)piperidin-1-yl)propan-1-one, HCl]: the melting point is 88 °C.

Take `CC(C)C(=O)N1CCC(Sc2ccc(-c3ccc4cccnc4c3)cc2)CC1` (as salt: HCl) [Example 520]: the melting point is 120 °C. `CC(C)C(=O)N1CCC(Sc2ccc(-c3ccc4cnccc4c3)cc2)CC1` (as salt: HCl) [Example 521, 1-(4-((4-(Isoquinolin-6-yl)phenyl)thio)piperidin-1-yl)-2-methylpropan-1-one HCl] yielded a melting point of 228 °C.

Compound `CC(C)C(=O)N1CCC(Sc2ccc(-c3cnc4ccccc4c3)cc2)CC1` (as salt: HCl) [Example 522, 2-Methyl-1-(4-((4-(quinolin-3-yl)phenyl)thio)piperidin-1-yl)propan-1-one, HCl] had a melting point of 130 °C. Consider `CC(C)C(=O)N1CCC(Sc2ccc(-c3cncc4ccccc34)cc2)CC1` (as salt: HCl) [Example 523, 1-(4-((4-(Isoquinolin-4-yl)phenyl)thio)piperidin-1-yl)-2-methylpropan-1-one HCl], for which the melting point worked out at 120 °C. Consider `CCC(=O)N1CCC(Oc2ncc(-c3cnc4ccccc4c3)cn2)CC1` [Example 143, 1-[4-(5-Quinolin-3-yl-pyrimidin-2-yloxy)-piperidin-1-yl]-propan-1-one], for which the melting point is 162 to 166 °C. Same read-out and setting: with `CCC(=O)N1CCC(Oc2ccc(-c3cnc4ccccc4c3)cc2Cl)CC1` [Example 191, 1-[4-(2-Chloro-4-quinolin-3-yl-phenoxy)-piperidin-1-yl]-propan-1-one] the figure was 183 to 185 °C; with `CCC(=O)N1CC(Oc2ccc(-c3cnc4ccccc4c3)cc2)C1` [Example 338, 1-(3-(4-(Quinolin-3-yl)phenoxy)azetidin-1-yl)propan-1-one], 172 °C; with `CC(C)C(=O)N1CC(Oc2ccc(-c3cnc4ccccc4c3)cc2)C1` [Example 339, 2-Methyl-1-(3-(4-(quinolin-3-yl)phenoxy)azetidin-1-yl)propan-1-one], 162 °C. Compound `O=C(C1CC1)N1CC(Oc2ccc(-c3cnc4ccccc4c3)cc2)C1` [Example 340, Cyclopropyl(3-(4-(quinolin-3-yl)phenoxy)azetidin-1-yl)methanone] returned a melting point of 187 °C.
